# Experimental data: the supplement of paper PMC10307832
# Assays:
# Assay in all cases: relative viability (nuclei count vs DMSO), 5 days (fraction); higher = more cells survive
# [1] = compound: CC1=CC(=C(N1C2=CC=C(C=C2)Cl)C)C(=O)CN3CCCCC3 [IU1-47] + Cc1cc(Nc2cc(N3CCN(C)CC3)nc(Sc3ccc(NC(=O)C4CC4)cc3)n2)n[nH]1 [Tozasertib] (partner 0.1 µM)
# How it was run: (§1)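 The day after seeding in 1536-well plates, lung cancer cell lines were treated by pin tool with a single drug, or with a fixed anchor-drug dose together with five library-drug doses (not always all listed) in √10 steps. After 5 days, a combined fix-and-stain solution (final 0.05% Triton X-100, 1% formaldehyde, 1 ug/ml Hoechst) was added. Nuclei counted on 4× images gave relative viability as treated counts over vehicle counts, reported as the median of duplicate plates.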
# [2] = compound: CC1=CC(=C(N1C2=CC=C(C=C2)Cl)C)C(=O)CN3CCCCC3 [IU1-47] + CS(=O)(=O)N1CCN(Cc2cc3nc(-c4cccc5[nH]ncc45)nc(N4CCOCC4)c3s2)CC1 [Pictilisib] (partner 1 µM)
# How it was run: as §1
# [3] = compound: CC1=CC(=C(N1C2=CC=C(C=C2)Cl)C)C(=O)CN3CCCCC3 [IU1-47] + C[C@]1(O)C[C@@H](c2nc(-c3ccc4ccc(-c5ccccc5)nc4c3)c3c(N)nccn32)C1 [Linsitinib] (partner 1 µM)
# How it was run: as §1
# [4] = compound: CC1=CC(=C(N1C2=CC=C(C=C2)Cl)C)C(=O)CN3CCCCC3 [IU1-47] + COc1cccc2cc(-c3nc([C@H]4CC[C@H](C(=O)O)CC4)n4ncnc(N)c34)[nH]c12 [OSI-027] (partner 0.5 µM)
# How it was run: as §1
Cell Line,relative viability ([1]; first compound 0.08 µM),relative viability ([1]; first compound 0.253 µM),relative viability ([1]; first compound 0.8 µM),relative viability ([1]; first compound 2.53 µM),relative viability ([1]; first compound 8 µM),relative viability ([2]; first compound 0.08 µM),relative viability ([2]; first compound 0.253 µM),relative viability ([2]; first compound 0.8 µM),relative viability ([2]; first compound 2.53 µM),relative viability ([2]; first compound 8 µM),relative viability ([3]; first compound 0.08 µM),relative viability ([3]; first compound 0.253 µM),relative viability ([3]; first compound 0.8 µM),relative viability ([3]; first compound 2.53 µM),relative viability ([3]; first compound 8 µM),relative viability ([4]; first compound 0.08 µM),relative viability ([4]; first compound 0.253 µM),relative viability ([4]; first compound 0.8 µM),relative viability ([4]; first compound 2.53 µM),relative viability ([4]; first compound 8 µM)
LXF-289,0.212,0.203,0.224,0.22,0.171,0.8,0.754,0.772,0.822,0.688,0.984,0.998,1.02,0.954,0.954,0.913,0.768,0.811,0.591,0.736
NCI-H23,0.364,0.341,0.427,0.376,0.341,0.43,0.492,0.44,0.543,0.435,0.607,0.741,0.686,0.665,0.533,0.644,0.587,0.695,0.583,0.597
NCI-H322M,0.496,0.558,0.506,0.54,0.477,0.56,0.478,0.514,0.517,0.513,1,0.88,1.03,0.927,0.887,0.677,0.553,0.632,0.568,0.553
NCI-H358,0.089,0.103,0.0989,0.0928,0.0979,0.287,0.323,0.352,–,0.366,0.737,0.791,0.75,–,0.703,0.889,1.15,1.04,0.676,0.82
NCI-H441,0.824,0.713,0.667,0.662,0.544,0.483,0.486,0.464,0.504,0.43,0.703,0.49,0.594,0.438,0.44,0.74,0.724,0.572,0.535,0.676
NCI-H460,0.459,0.513,0.496,0.57,0.393,0.385,0.284,0.381,0.359,0.345,1.21,1.1,0.986,0.665,0.559,0.795,0.737,0.835,0.822,0.505
NCI-H520,0.429,0.419,0.471,0.461,0.363,0.303,0.297,0.378,0.331,0.237,0.849,1.13,0.934,0.974,0.666,0.261,0.27,0.305,0.3,0.206
NCI-H596,0.935,0.978,0.864,0.887,0.954,0.393,0.367,0.405,0.429,0.393,1.17,1.11,1.02,0.984,0.934,0.817,0.62,0.743,0.814,0.739
NCI-H647,0.372,0.309,–,0.248,0.306,0.467,0.52,0.453,–,0.359,1.22,1.2,1.12,1.19,1.01,0.744,0.605,–,0.7,0.478
NCI-H650,0.759,0.824,0.751,0.779,0.698,0.882,1,0.932,0.968,0.832,0.831,0.966,0.924,0.796,0.875,0.507,0.55,0.487,0.482,0.441
NCI-H661,0.354,0.373,0.355,0.358,0.375,0.376,0.406,0.414,0.349,0.363,0.622,0.644,0.596,0.419,0.474,0.81,0.753,0.63,0.799,0.647
NCI-H727,0.655,0.562,0.589,0.58,0.568,0.33,–,0.356,0.264,0.355,0.315,–,0.274,0.221,0.269,0.634,0.659,0.724,0.525,0.454
NCI-H838,0.268,0.28,0.297,0.301,0.248,0.391,0.462,0.485,0.436,0.425,1.07,1.07,1.12,1.09,1.07,0.405,0.424,0.428,0.417,0.447
NCI-H1355,0.483,0.606,0.506,–,0.546,0.489,0.457,0.363,0.251,0.415,0.873,0.844,0.933,0.74,0.686,0.396,0.427,0.402,–,0.395
NCI-H1395,0.739,0.692,0.835,0.8,0.718,0.597,0.65,0.569,–,0.433,1.04,1.07,0.978,–,0.987,0.58,0.621,0.665,0.387,0.554
NCI-H1437,0.413,0.396,0.396,0.398,0.347,0.403,0.428,0.423,0.413,0.35,1.11,1.02,0.959,1.01,0.704,0.873,0.886,0.92,0.854,0.815
